# Tests used:
# Albumin = Albumin (Homo sapiens, UniProt P02768); experiment: Inhibition of Albumin (unknown origin) denaturation at 100 uM relative to control
# [1] = target: cAMP and cAMP-inhibited cGMP 3',5'-cyclic phosphodiesterase 10A (Homo sapiens, UniProt Q9Y233); experiment: Inhibition of full length human PDE10A incubated for 1 hr by topcount Scintillation plate reader analysis
# BK polyomavirus = experiment: Antiviral activity against BK polyomavirus MM infected in human HFF cells assessed as reduction in viral growth incubated for 7 days; format: functional, organism-based; details: Betapolyomavirus hominis, 168 h
# [2] = Cytotoxicity against human HFF cells assessed as cell growth inhibition by celltiter-glo assay; format: toxicity, cell-based
# A549 [3] = experiment: Antiproliferative activity against human A549 cells assessed as inhibition of cell growth by MTT assay; format: functional, cell-based
# A549 [4] = experiment: Antiproliferative activity against human A549 cells assessed as inhibition of cell growth incubated for 48 hrs by alamarblue staining based assay; format: functional; details: A549, 48 h
# Pyruvate kinase PKM = Pyruvate kinase PKM (Homo sapiens, UniProt P14618); experiment: Inhibition of recombinant PKM2 (unknown origin)
# Sequence of Pyruvate kinase PKM (P14618 whole entry): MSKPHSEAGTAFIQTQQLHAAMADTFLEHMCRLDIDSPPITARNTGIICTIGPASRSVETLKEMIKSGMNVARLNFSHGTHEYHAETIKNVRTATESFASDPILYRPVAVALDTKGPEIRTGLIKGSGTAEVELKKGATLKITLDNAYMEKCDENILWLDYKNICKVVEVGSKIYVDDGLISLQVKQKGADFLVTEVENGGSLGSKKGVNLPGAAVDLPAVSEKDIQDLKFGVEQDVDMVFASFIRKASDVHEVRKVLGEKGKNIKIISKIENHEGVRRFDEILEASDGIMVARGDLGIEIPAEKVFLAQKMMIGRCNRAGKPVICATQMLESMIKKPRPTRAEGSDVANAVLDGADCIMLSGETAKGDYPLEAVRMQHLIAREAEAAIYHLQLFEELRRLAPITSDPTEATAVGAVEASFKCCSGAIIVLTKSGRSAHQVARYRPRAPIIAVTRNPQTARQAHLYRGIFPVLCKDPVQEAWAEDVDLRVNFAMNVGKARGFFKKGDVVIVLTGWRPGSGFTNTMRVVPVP
# COLO 205 = experiment: Antiproliferative activity against human COLO 205 cells assessed as inhibition of cell growth incubated for 48 hrs by alamarblue staining based assay; format: functional; details: COLO 205, 48 h
# MCF7 = experiment: Antiproliferative activity against human MCF7 cells assessed as inhibition of cell growth incubated for 48 hrs by alamarblue staining based assay; format: functional; details: MCF7, 48 h
# Kluyveromyces marxianus [5] = experiment: Synergetic antifungal activity against Candida keyfer […] 410004 assessed as fractional inhibitory concentration index incubated for 24 hrs in the presence of amphotericin B by checkerboard microdilution method; format: functional
# Neurospora crassa = experiment: Antifungal activity against Neurospora crassa assessed as inhibition of fungal growth incubated for 48 hrs; format: functional
# Cryptococcus neoformans = experiment: Antifungal activity against Cryptococcus neoformans NCPF 250316 assessed as inhibition of fungal growth incubated for 48 hrs; format: functional
# Kluyveromyces marxianus [6] = experiment: Antifungal activity against Candida keyfer […] 410004 assessed as inhibition of fungal growth incubated for 48 hrs; format: functional
# Candida albicans [7] = experiment: Antifungal activity against Candida albicans NCPF 400034 assessed as inhibition of fungal growth incubated for 48 hrs; format: functional
# Aspergillus niger = experiment: Antifungal activity against Aspergillus niger assessed as inhibition of fungal growth incubated for 48 hrs; format: functional
# Candida dubliniensis = experiment: Antifungal activity against Candida dubliniensis CD36 assessed as reduction in fungal growth incubated for 24 hrs by CLSI based assay; format: functional
# Candida albicans [8] = experiment: Antifungal activity against Candida albicans ATCC 10231 assessed as reduction in fungal growth incubated for 24 hrs by CLSI based assay; format: functional
# [9] = tested on: Meyerozyma guilliermondii; experiment: Antifungal activity against Meyerozyma guilliermondii assessed as reduction in fungal growth incubated for 24 hrs by CLSI based assay; format: functional
# Pichia kudriavzevii = experiment: Antifungal activity against Candida krusei ATCC 6358 assessed as reduction in fungal growth incubated for 24 hrs by CLSI based assay; format: functional
# Nakaseomyces glabratus = experiment: Antifungal activity against Candida glabrata CBS138 assessed as reduction in fungal growth incubated for 24 hrs by CLSI based assay; format: functional
# Kluyveromyces marxianus [10] = experiment: Antifungal activity against Candida kefyr assessed as reduction in fungal growth incubated for 24 hrs by CLSI based assay; format: functional
# Candida tropicalis = experiment: Antifungal activity against Candida tropicalis MYA-3404 assessed as reduction in fungal growth incubated for 24 hrs by CLSI based assay; format: functional
# Aorta = experiment: Vasorelaxant activity in rabbit aorta assessed as inhibition of phenylephrine-induced contraction; format: functional, tissue-based; details: Oryctolagus cuniculus
# Sequence of cAMP and cAMP-inhibited cGMP 3',5'-cyclic phosphodiesterase 10A (Q9Y233 whole entry): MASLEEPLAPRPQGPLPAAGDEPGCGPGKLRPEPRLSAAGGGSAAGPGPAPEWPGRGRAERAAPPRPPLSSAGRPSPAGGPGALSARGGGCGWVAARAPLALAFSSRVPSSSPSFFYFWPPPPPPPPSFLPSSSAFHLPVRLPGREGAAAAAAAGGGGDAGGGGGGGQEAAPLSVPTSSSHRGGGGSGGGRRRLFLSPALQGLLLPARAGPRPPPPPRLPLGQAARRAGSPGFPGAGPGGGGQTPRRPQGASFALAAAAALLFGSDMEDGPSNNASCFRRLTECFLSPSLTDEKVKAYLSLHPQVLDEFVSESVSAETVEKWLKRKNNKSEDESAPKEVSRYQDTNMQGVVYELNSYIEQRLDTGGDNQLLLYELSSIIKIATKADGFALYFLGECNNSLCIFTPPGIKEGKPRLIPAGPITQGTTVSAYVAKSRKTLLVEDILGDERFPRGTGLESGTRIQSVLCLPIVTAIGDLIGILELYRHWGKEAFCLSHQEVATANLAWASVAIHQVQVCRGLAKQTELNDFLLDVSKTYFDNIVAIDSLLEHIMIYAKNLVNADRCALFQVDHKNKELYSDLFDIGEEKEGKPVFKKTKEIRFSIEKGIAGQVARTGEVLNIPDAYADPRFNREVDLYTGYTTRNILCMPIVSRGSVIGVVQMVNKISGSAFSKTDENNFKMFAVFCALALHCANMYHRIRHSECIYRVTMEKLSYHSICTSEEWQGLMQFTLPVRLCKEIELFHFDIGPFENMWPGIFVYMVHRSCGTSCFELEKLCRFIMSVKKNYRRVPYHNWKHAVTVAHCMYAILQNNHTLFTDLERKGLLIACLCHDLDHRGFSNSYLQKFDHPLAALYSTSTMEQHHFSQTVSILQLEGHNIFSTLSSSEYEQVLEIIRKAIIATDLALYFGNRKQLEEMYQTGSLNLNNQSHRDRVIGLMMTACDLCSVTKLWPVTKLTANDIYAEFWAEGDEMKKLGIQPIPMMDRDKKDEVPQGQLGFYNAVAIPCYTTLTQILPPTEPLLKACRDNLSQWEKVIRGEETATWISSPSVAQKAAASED
# Sequence of Albumin (P02768 whole entry): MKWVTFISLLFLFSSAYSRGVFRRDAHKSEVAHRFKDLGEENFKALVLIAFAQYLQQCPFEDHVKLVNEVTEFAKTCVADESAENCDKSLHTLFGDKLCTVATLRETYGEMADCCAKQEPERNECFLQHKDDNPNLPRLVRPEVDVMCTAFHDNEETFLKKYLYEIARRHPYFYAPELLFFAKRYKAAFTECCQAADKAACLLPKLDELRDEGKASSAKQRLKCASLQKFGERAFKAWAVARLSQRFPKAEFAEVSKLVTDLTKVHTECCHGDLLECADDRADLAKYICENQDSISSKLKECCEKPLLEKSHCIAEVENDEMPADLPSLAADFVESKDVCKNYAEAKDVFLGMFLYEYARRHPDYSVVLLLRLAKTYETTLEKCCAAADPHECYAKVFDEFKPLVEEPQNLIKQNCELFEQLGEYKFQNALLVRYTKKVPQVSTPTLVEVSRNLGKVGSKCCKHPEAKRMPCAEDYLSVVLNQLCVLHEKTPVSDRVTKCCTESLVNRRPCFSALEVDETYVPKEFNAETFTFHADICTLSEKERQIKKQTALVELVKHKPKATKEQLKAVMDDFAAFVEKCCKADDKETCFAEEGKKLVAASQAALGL
compound,measurement,setting,value
Clc1ccc(-c2cn3cccnc3n2)cc1,inhibition at 100 µM,Albumin,41.7%
COc1ccc(-c2cn3cccnc3n2)cc1,inhibition at 100 µM,Albumin,40.9%
Cc1ccc(-c2cn3cccnc3n2)cc1,inhibition at 100 µM,Albumin,82.9%
Cc1c(C(=O)N2CCCC2)cnn1C(=O)Nc1ccn2cc(-c3ccccc3)nc2n1,IC50,[1],0.003 µM
Cc1c(C(=O)NCc2c[nH]cn2)cnn1C(=O)Nc1ccn2cc(-c3ccccc3)nc2n1,IC50,[1],0.002 µM
CS(=O)(=O)C1=CN(Cc2ccccc2)C(=O)N2CCN=C12,EC50,BK polyomavirus,0.66 µM
same,CC50,[2],> 150 µM
Cc1c(C(=O)N2CCC2)cnn1C(=O)Nc1ccn2cc(-c3ccc(Cl)s3)nc2n1,IC50,[1],0.004 µM
Cc1ccc(S(=O)(=O)C2=CN(c3ccccc3)C(=O)N3CCN=C23)cc1,EC50,BK polyomavirus,93 µM
same,CC50,[2],> 150 µM
CC(=O)NC1(Cc2ccc(O)cc2)C(=O)N=C2N=CC=CN21 (centres undefined),IC50,A549 [3],6.4 µM
COc1ccccc1N1CCN(CC(=O)c2cnc3ncccn23)CC1,IC50,A549 [4],26.2 µM
same,IC50,Pyruvate kinase PKM,0.027 µM
same,IC50,COLO 205,64.8 µM
same,IC50,MCF7,12.2 µM
CC(=O)NC1(Cc2cccc3ccccc23)C(=O)N=C2N=CC=CN21 (centres undefined),IC50,A549 [3],2.6 µM
O=C(CN1CCN(c2ccccc2)CC1)c1cnc2ncccn12,IC50,A549 [4],28.5 µM
same,IC50,Pyruvate kinase PKM,0.05 µM
same,IC50,COLO 205,73.5 µM
same,IC50,MCF7,13.5 µM
c1ccc([Se]Cc2cn3cccnc3n2)cc1,fractional inhibitory concentration index (FICI),Kluyveromyces marxianus [5],3.6
same,MIC,Neurospora crassa,18 µg/mL
same,MIC,Cryptococcus neoformans,> 36 µg/mL
same,MIC,Kluyveromyces marxianus [6],> 36 µg/mL
same,MIC,Candida albicans [7],36 µg/mL
same,MIC,Aspergillus niger,> 36 µg/mL
Cc1c(C(=O)NCc2cocn2)cnn1C(=O)Nc1ccn2cc(-c3ccccc3)nc2n1,IC50,[1],0.001 µM
CC(=O)c1ccc(C(=O)N2CCN(CC(=O)c3cnc4ncccn34)CC2)cc1,IC50,A549 [4],35.4 µM
same,IC50,Pyruvate kinase PKM,0.73 µM
same,IC50,COLO 205,104 µM
same,IC50,MCF7,11.8 µM
O=C(c1ccc(Cl)cc1)c1cnc2ncccn12,MIC,Candida dubliniensis,0.5 µg/mL
same,MIC,Candida albicans [8],0.25 µg/mL
same,MIC,[9],0.062 µg/mL
same,MIC,Pichia kudriavzevii,0.5 µg/mL
same,MIC,Nakaseomyces glabratus,1 µg/mL
same,MIC,Kluyveromyces marxianus [10],0.125 µg/mL
same,MIC,Candida tropicalis,0.031 µg/mL
O=C(CN1CCN(c2ccc(Cl)cc2)CC1)c1cnc2ncccn12,IC50,A549 [4],37.5 µM
same,IC50,Pyruvate kinase PKM,0.79 µM
same,IC50,COLO 205,28 µM
same,IC50,MCF7,12.9 µM
CC(=O)NC1(Cc2ccc(Br)cc2)C(=O)N=C2N=CC=CN21 (centres undefined),IC50,A549 [3],2.1 µM
Nc1cc(N)nc(-c2nc(Cc3ccccc3F)c3ncccn23)n1,IC50,Aorta,1.05 µM
O=C(c1ccc(F)cc1)c1cnc2ncccn12,MIC,Candida dubliniensis,0.5 µg/mL
same,MIC,Candida albicans [8],0.062 µg/mL
same,MIC,[9],0.25 µg/mL
same,MIC,Pichia kudriavzevii,0.5 µg/mL
same,MIC,Nakaseomyces glabratus,0.031 µg/mL
same,MIC,Kluyveromyces marxianus [10],0.125 µg/mL
same,MIC,Candida tropicalis,0.25 µg/mL
Cc1ccc([Se]Cc2cn3cccnc3n2)cc1,MIC,Neurospora crassa,18.9 µg/mL
same,MIC,Cryptococcus neoformans,> 36 µg/mL
same,MIC,Kluyveromyces marxianus [6],18.9 µg/mL
same,MIC,Candida albicans [7],> 37.8 µg/mL
same,MIC,Aspergillus niger,> 37.8 µg/mL
c1ccc(-c2ccc(-c3cn4cccnc4n3)cc2)cc1,inhibition at 100 µM,Albumin,96.4%
N#Cc1ccc(C(=O)c2cnc3ncccn23)cc1,MIC,Candida dubliniensis,0.062 µg/mL
same,MIC,Candida albicans [8],0.25 µg/mL
same,MIC,[9],0.031 µg/mL
same,MIC,Pichia kudriavzevii,0.25 µg/mL
same,MIC,Nakaseomyces glabratus,0.065 µg/mL
same,MIC,Kluyveromyces marxianus [10],0.125 µg/mL
same,MIC,Candida tropicalis,0.062 µg/mL

# From ChEMBL document CHEMBL5532697, “Imidazopyrimidine: from a relatively exotic scaffold to an evolving structural motif in drug discovery” (RSC Med Chem, 2024)
